Laboratory results published in patent US8604016B2, “Heterocyclic inhibitors of glutaminase” (Calithera Biosciences Inc., priority 2011, dated 2013).
In brackets after ≈: the same amount, converted by molar mass. Blank lines part the entries; values can stand above or below the compound they belong to.

Columns and labels:
[1] = target: T1, recombinant form of Glutaminase 1 (GAC) (Homo sapiens, UniProt O94925); experiment: Recombinant Enzyme Assay - Time Dependence (60 minutes enzyme/compound preincubation); assay type: biochemical
Experimental: The enzyme/compound mix was sealed with sealing foil (USA Scientific) and allowed to incubate, with mild agitation, for 60 minutes at 20° C. Enzymatic reaction was started with the addition of 50 μL of substrate solution (50 mM Tris-HCl pH 8.0, 0.2 mM EDTA, 150 mM K2HPO4, 0.1 mg/ml BSA, 1 mM DTT, 20 mM L-glutamine, 2 mM NAD^+, and 10 ppm antifoam) and read in a Molecular Devices M5 plate reader at 20° C. The plate reader was configured to read absorbance (λ=340 nm) in kinetic mode for 15 minutes. Data was recorded as milli-absorbance units per minute and slopes were compared to a control compound and a DMSO-only control on the same plate. Compounds with slopes less than the DMSO control were considered inhibitors and plate variability was assessed using the control compound.

[2] = Solubility (18 hr vortex mixing at room temperature, filtration, HPLC); assay type: physicochemical; details: thermodynamic from solid
Experimental: Ca. 1 mg portions of test article were combined with 120 μL solvent in wells of a 96×2 mL polypropylene plate. […] The contents of all wells were then filtered through a 0.45 μm GHP filter plate to yield clear filtrates. 5 μL of each filtrate was diluted into 100 μL DMF and vortex mixed to yield HPLC samples. Duplicate quantitation standards for each test article were prepared by diluting weighed portions of solid test article in measured volumes of DMF. 2 μL of each HPLC sample and quantitation standard were analyzed by HPLC using the method outlined in Table 5. Dissolved test article concentrations were calculated by peak area ratio against the appropriate quantitation standards.

[3] = target: T1, recombinant form of Glutaminase 1 (GAC); experiment: Recombinant Enzyme Assay (GAC coupled to GDH, NADH absorbance, no preincubation); assay type: biochemical; details: no preincubation; read-out: GAC Delta N2 IC50 no preinc
In short: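 GAC (4 nM) in Tris-HCl pH 8.0 with 150 mM K2HPO4, EDTA, BSA, DTT, plus 4 units/ml GDH and 4 mM ADP, without preincubation. Absorbance at 340 nm was read kinetically for 15 min at 20° C. Slopes (mAU/min) were compared with DMSO-only and control-compound wells on the same plate.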

[4] = read-out: GAC Delta N2 IC50 60 min
[5] = read-out: GAC Delta N2 IC50 60 min preinc

Structure (SMILES): CN(C)Cc1cccc(CC(=O)Nc2nnc(CCCCc3nnc(NC(=O)Cc4ccccc4)s3)s2)c1 [Compound 394]
IC50 [1, 4]: 88 nM

Structure (SMILES): O=C(Cc1ccccc1)Nc1ccc(CCCCc2nnc(NC(=O)C(OC(=O)CCN3CCOCC3)c3cccc(Cl)c3)s2)nn1 (stereo not drawn) [Compound 389]
IC50 [1, 5]: 84 nM

Structure (SMILES): CC(C)(C)OC(=O)NCc1cccc(CC(=O)Nc2nnc(CCCCc3ccc(NC(=O)C4(C)COC(C)(C)OC4)nn3)s2)c1 [Compound 529]
IC50 [1, 4]: 32 nM

Structure (SMILES): CCCC(=O)OCN(C(=O)Cc1ccccc1)c1nnc(CCCCc2ccc(NC(=O)Cc3ccccc3)nn2)s1 [Compound 402]
solubility at 18 h ([2]; 50 mM citrate buffer pH 2.3, 20 °C, aqueous buffer, 50 mM Cit pH 2.3, room temperature): < 4 µg/mL
solubility at 18 h ([2]; 50 mM citrate buffer pH 3.3, 20 °C, aqueous buffer, 50 mM Cit pH 3.3, room temperature): < 4 µg/mL
solubility at 18 h ([2]; 50 mM citrate buffer pH 4.4, 20 °C, aqueous buffer, 50 mM Cit pH 4.4, room temperature): < 4 µg/mL
solubility at 18 h ([2]; 50 mM citrate buffer pH 5.4, 20 °C, aqueous buffer, 50 mM Cit pH 5.4, room temperature): < 4 µg/mL
solubility at 18 h ([2]; 20 °C, aqueous buffer, PBS, room temperature): < 4 µg/mL
solubility at 18 h ([2]; 20 °C, aqueous with cosolvent or surfactant or cyclodextrin, 10% CrEL/50 mM cit, room temperature): 157 µg/mL (≈ 268 µM)
solubility at 18 h ([2]; 20 °C, aqueous with cosolvent or surfactant or cyclodextrin, 10% PS80/50 mM cit, room temperature): 153 µg/mL (≈ 261 µM)
solubility at 18 h ([2]; 20 °C, aqueous with cosolvent or surfactant or cyclodextrin, 20% HPBCD/50 mM cit, room temperature): 56 µg/mL (≈ 95.4 µM)
solubility at 18 h ([2]; 20 °C, aqueous with cosolvent or surfactant or cyclodextrin, 20% SBECD/50 mM cit, room temperature): 19 µg/mL (≈ 32.4 µM)
solubility at 18 h ([2]; 20 °C, oil or lipid, Capryol 90, room temperature): 13700 µg/mL (≈ 23300 µM)
solubility at 18 h ([2]; 20 °C, oil or lipid, Capryol PGMC, room temperature): 11200 µg/mL (≈ 19100 µM)
solubility at 18 h ([2]; 20 °C, oil or lipid, Labrasol, room temperature): 31000 µg/mL (≈ 52900 µM)
solubility at 18 h ([2]; 20 °C, oil or lipid, canola oil, room temperature): 529 µg/mL (≈ 902 µM)
solubility at 18 h ([2]; 20 °C, organic solvent or mixture, EtOH, room temperature): 2960 µg/mL (≈ 5040 µM)
solubility at 18 h ([2]; 20 °C, organic solvent or mixture, PEG400, room temperature): 30200 µg/mL (≈ 51400 µM)
solubility at 18 h ([2]; 20 °C, organic solvent or mixture, PG, room temperature): 1360 µg/mL (≈ 2330 µM)
solubility at 18 h ([2]; 20 °C, pH 1, simulated gastric fluid, 0.1M HCl, room temperature): < 4 µg/mL
solubility at 18 h ([2]; 20 °C, pH 13, aqueous buffer, 0.1M NaOH, room temperature): < 4 µg/mL
solubility at 18 h ([2]; 20 °C, saline or isotonic, 0.9% NaCl, room temperature): < 4 µg/mL
solubility at 18 h ([2]; water, room temperature (ca. 20 C)): < 4 µg/mL

Structure (SMILES): Cc1ccccc1CC(=O)Nc1nnc(CCCCc2ccc(NC(=O)Cc3ccccc3F)nn2)s1 [Compound 536]
IC50 [1, 4]: 6 nM

Structure (SMILES): O=C(Cc1ccccc1)Nc1ccc(CCCCc2nnc(NC(=O)C(O)c3ccc(-c4ccccc4)cc3OCCO)s2)nn1 (stereo not drawn) [Compound 504]
IC50 [1, 4]: 7 nM

Structure (SMILES): Cc1cccc(CNC(=O)Nc2nnc(CCCCc3nnc(NC(=O)Cc4ccccc4)s3)s2)c1 [Compound 417]
IC50 [1, 4]: 56 nM

Structure (SMILES): O=C(Cc1ccccc1)Nc1ccc(CCCCc2nnc(NC(=O)Cc3cccc(OCc4ccccn4)c3)s2)nn1 [Compound 480]
IC50 [1, 4]: > 20000 nM

Structure (SMILES): CCCC(=O)OCN(C(=O)Cc1cccc(CC(=O)N2CCC(F)(F)CC2)c1)c1nnc(CCCCc2ccc(NC(=O)Cc3ccccc3)nn2)s1 [Compound 570]
IC50 [1, 4]: 430 nM

Structure (SMILES): CCCC(=O)OCN(C(=O)Cc1cccc(CNC(=O)OC(C)(C)C)c1)c1nnc(CCCCc2ccc(NC(=O)Cc3ccccc3)nn2)s1 [Compound 552]
IC50 [1, 4]: > 20000 nM

Structure (SMILES): O=C(Cc1ccccc1F)Nc1ccc(CCCCc2nnc(NC(=O)Cc3ccccc3Cl)s2)nn1 [Compound 566]
IC50 [1, 4]: 6 nM

Structure (SMILES): CC(C)(C)OC(=O)N1CCN(Cc2cc(CC(=O)Nc3nnc(CCCCc4ccc(NC(=O)Cc5ccccc5)nn4)s3)ccc2F)CC1 [Compound 493]
IC50 [1, 4]: 19 nM

Structure (SMILES): CN(Cc1cccc(CC(=O)Nc2nnc(CCCCc3nnc(NC(=O)Cc4ccccc4)s3)s2)c1)C(=O)OC(C)(C)C [Compound 391]
IC50 [1, 5]: 7 nM

Structure (SMILES): O=C(Cc1ccsc1)Nc1nnc(CCSCCc2nnc(NC(=O)Cc3ccsc3)s2)s1 [Compound 84]
IC50 [3]: 230 nM

Structure (SMILES): O=C(Nc1nnc(CCCCc2nnc(NC(=O)C(CO)c3cccs3)s2)s1)C(CO)c1cccs1 (stereo not drawn) [Compound 190]
IC50 [3]: 250 nM

Structure (SMILES): COC(=O)c1cccc(NC(=O)Nc2nnc(CCSCCc3nnc(NC(=O)Nc4cccc(C(=O)OC)c4)s3)s2)c1 [Compound 31]
IC50 [3]: > 50000 nM

Now from value to compound:

IC50 [1, 4]: 4 nM
Structure (SMILES): CC(C(=O)Nc1nnc(CCCCc2ccc(NC(=O)Cc3cccc(CNC(=O)OCCF)c3)nn2)s1)c1ccccc1 (stereo not drawn) [Compound 591]

IC50 [1, 4]: 7 nM
Structure (SMILES): CC(C(=O)Nc1nnc(CCCCc2ccc(NC(=O)Cc3cccc(CNC(=O)CC(O)C(F)(F)F)c3)nn2)s1)c1ccccc1 (stereo not drawn) [Compound 606]

IC50 [1, 4]: 25 nM
Structure (SMILES): CC(C)Cc1ccc(C(C)C(=O)Nc2nnc(CCCCc3ccc(NC(=O)Cc4ccccc4)nn3)s2)cc1 (stereo not drawn) [Compound 557]

IC50 [1, 4]: 6 nM
Structure (SMILES): CCOC(=O)NCc1cc(C(C)C(=O)Nc2nnc(CCCCc3ccc(NC(=O)Cc4ccccc4)nn3)s2)ccc1F (stereo not drawn) [Compound 574]

IC50 [1, 4]: 5 nM
Structure (SMILES): CC(NC(=O)OC(C)(C)C)c1cc(CC(=O)Nc2ccc(CCCCc3nnc(NC(=O)Cc4ccccc4)s3)nn2)ccc1F (stereo not drawn) [Compound 654]

IC50 [1, 4]: 19 nM
Structure (SMILES): CC(C(=O)Nc1ccc(CCCCc2nnc(NC(=O)C(C)c3ccccc3)s2)nn1)c1ccccc1 (stereo not drawn) [Compound 613]

IC50 [1, 4]: 7 nM
Structure (SMILES): CC(C)(C)OC(=O)NCc1cccc(CC(=O)Nc2nnc(CCCCc3ccc(NC(=O)C(O)c4cccc(Cl)c4)nn3)s2)c1 (stereo not drawn) [Compound 422]
